{"source": "patent US20070270462A1", "about": "“8-hydroxyquinoline compounds for treating a polyglutamine (polyQ)-expansion disease” (priority 2005, published 2007)", "key": {"egfp-alone": {"tested_on": "egfp-alone", "experiment": "Western blotting of cell extracts, egfp-alone expression", "type": "cell-based", "excerpt": "(§1) PolyQ-htt-GFP fusion constructs, in which the polyglutamine region is encoded by CAA and CAG-containing tandem repeats ([…]) [SEQ ID NO: 1], human polyglutaminen, were obtained from the Hereditary Disease Foundation, Santa Monica, Calif., USA. PC12 and HEK293 cells were maintained in MEM supplemented with 10% v/v FBS, switched to Opti-MEM without serum for 6 hrs during transfection using Lipofectamine 2000 (Invitrogen, Carlsbad, Calif., USA), and returned to serum-containing medium thereafter (up to 48 hours). […] Control cultures received equivalent amounts of DMSO-containing vehicle (<0.1% w/v DMSO, final concentration).\nHEK293 or PC12 cells were lysed in PBS buffer containing 1% v/v Triton X-100 and protease inhibitor cocktail (Roche, Indianapolis, Ind.), and passed through a 28 gauge needle to ensure the release of Htt inclusions from the nuclei. Whole mouse brains were homogenized in 50 mM Tris-HCl (pH 7.4), 150 mM NaCl, 1% v/v Triton X-100 and complete protease inhibitor cocktail. Brain homogenate was pre-cleared by centrifuging at 7,500 g for 90 s at 4° C. The supernatant was passed through a 28-gauge needle and boiled in SDS sample buffer for 10 min. Fifty μg of total protein was loaded onto 10% w/v SDS gel containing a 4% w/v stacking gel. […]"}, "[1]": {"tested_on": "Htt exon1-Q103-egfp transfected PC12 cells", "experiment": "cells", "type": "cell-based", "excerpt": "as §1\nPlasma membrane integrity was evaluated using propidium iodide at 20 μg/ml final concentration. Approximately 200 cells transfected with the Htt^exon1-Q103-egf plasmid were counted for each treatment group 48 hr after transfection. Cells were at that time as expanded protein accumulation had reached a plateau, and 90% of cell death occurred by this time point. The experiment was repeated twice and counts were averaged. Counts of transfected cells were averaged from three independent, randomly-selected fields. ImageJ 1.32j (National Institutes of Health, USA), was used to measure the size of the lateral ventricles (n≧6 for each group). […]"}, "aggregated huntingtin": {"tested_on": "aggregated huntingtin", "experiment": "Western blotting of aggregated huntingtin in whole-brain extracts of R6/2 mice", "type": "in vivo, mouse", "conditions": "8 weeks daily oral CQ 30 mg/kg/day", "description": "Whole mouse brains were homogenized in 50 mM Tris-HCl (pH 7.4), 150 mM NaCl, 1% v/v Triton X-100 and complete protease inhibitor cocktail. Brain homogenate was pre-cleared by centrifuging at 7,500 g for 90 s at 4° C. The supernatant was passed through a 28-gauge needle and boiled in SDS sample buffer for 10 min. Fifty μg of total protein was loaded onto 10% w/v SDS gel containing a 4% w/v stacking gel. Monoclonal antibodies anti-polyglutamine (1:2,000), anti-GAPDH (1:10,000), anti-GFP (1:4,000), and anti-Htt (EM48) in 1:1000 dilution were used for immunoblotting. All western blot experiments were performed at least three times and band intensities were averaged."}, "R6/2 mice [2]": {"tested_on": "R6/2 mice", "experiment": "Foot clasping test in R6/2 mice", "type": "in vivo, mouse", "conditions": "R6/2 mice at 10 weeks", "experimental": "(§2) A colony of transgenic mice strain R6/2 that is heterozygous for htt exon1 (containing 145 CAG repeats) was maintained, with founders originating and available from The Jackson Laboratory (Bar Harbor, Me., USA). Male transgenic R6/2 mice were bred with background strain (B6CBAFI/J) females. Genotyping was done according to Hockly et al, Brain Res Bull 61, 469-479, 2003. CQ in water was orally administered to mice at 30 mg/kg/day starting at 3 weeks of age and continued until the mice were deceased or sacrificed for tissues. Littermate R6/2 mice were gavaged with water vehicle alone. […] Blood glucose levels were determined after at least 8 hrs of fasting in 11-week old mice (n=6 for wild-type, n=4 for vehicle-treated R6/2, n=6 for CQ-treated R6/2 littermates) using a 2300 STAT Plus glucose analyzer (YSI, Yellowsonte, Ohio, USA). Fasting blood insulin levels in animals fasted for 8 hrs were measured using an Ultra Sensitive Rat Insulin ELISA Kit (Crystal Chem, Inc., Downers Grove, Ill., USA) according to manufacturer's instructions.\n(§3) Rotarod performance (n≧6 for each treatment group) was assessed as described by Hockly et al., 2003 Supra with the modification that the SDI Rota-Rod (San Diego Instruments, San Diego, Calif.) was set to linearly increase in speed to 40 rpm in 4 min ramp time. […]"}, "R6/2 mice [3]": {"tested_on": "R6/2 mice", "experiment": "Rotarod performance in R6/2 mice", "type": "in vivo, mouse", "conditions": "between ninth and eleventh weeks of age, oral CQ 30 mg/kg/day", "experimental": "as §2, §3"}, "R6/2 mice [4]": {"tested_on": "R6/2 mice", "experiment": "Lifespan (survival) of R6/2 mice", "type": "in vivo, mouse", "conditions": "oral CQ 30 mg/kg/day", "experimental": "A colony of transgenic mice strain R6/2 that is heterozygous for htt exon1 (containing 145 CAG repeats) was maintained, with founders originating and available from The Jackson Laboratory (Bar Harbor, Me., USA). Male transgenic R6/2 mice were bred with background strain (B6CBAFI/J) females. Genotyping was done according to Hockly et al, Brain Res Bull 61, 469-479, 2003. CQ in water was orally administered to mice at 30 mg/kg/day starting at 3 weeks of age and continued until the mice were deceased or sacrificed for tissues. Littermate R6/2 mice were gavaged with water vehicle alone. At the end of CQ treatment mice were anesthetized and transcardially perfused with PBS followed by 4% v/v paraformaldehyde. Blood glucose levels were determined after at least 8 hrs of fasting in 11-week old mice (n=6 for wild-type, n=4 for vehicle-treated R6/2, n=6 for CQ-treated R6/2 littermates) using a 2300 STAT Plus glucose analyzer (YSI, Yellowsonte, Ohio, USA). Fasting blood insulin levels in animals fasted for 8 hrs were measured using an Ultra Sensitive Rat Insulin ELISA Kit (Crystal Chem, Inc., Downers Grove, Ill., USA) according to manufacturer's instructions. […]"}}}
{"compound": "Oc1c(I)cc(Cl)c2cccnc12", "note": "[CQ, 5-chloro-7-iodo-8-hydroxy-quinoline]", "values": [{"measurement": "inhibition of egfp-alone expression", "setting": "egfp-alone", "value": "not observed"}, {"measurement": "EC50", "setting": "[1]; Rattus norvegicus, PC-12, Htt exon1-Q103-egfp cells, PI staining, 48 hr after transfection, read-out: cell survival improvement, half maximal effect", "value": "1000 to 2000", "unit": "nM"}, {"measurement": "CQ concentration at which cell death began to increase (toxic effects of CQ)", "setting": "[1]; rat, 48 h", "value": 8, "unit": "µM"}, {"measurement": "reduction in the quantity of aggregated huntingtin", "setting": "aggregated huntingtin", "value": 3.9, "unit": "fold"}, {"measurement": "average clasping score", "setting": "R6/2 mice [2]; score of 3 maximum, oral CQ 30 mg/kg/day", "value": 1.3}, {"measurement": "reduction of average clasping score", "setting": "R6/2 mice [2]; versus vehicle (2.5)", "value": 48, "unit": "%"}, {"measurement": "rotarod performance", "setting": "R6/2 mice [3]", "value": "scored significantly better"}, {"measurement": "average lifespan", "setting": "R6/2 mice [4]", "value": 92, "unit": "days"}, {"measurement": "increase in longevity over the littermate control group", "setting": "R6/2 mice [4]", "value": 20, "unit": "%"}]}
